Experimental data as given in US9879050B2, “Substituted urea depsipeptide analogs as activators of the CLPP endopeptidase” (priority 2013, dated 2018).
Values after ≈ are worked out from the molar mass of the structure shown. Where two headings read alike, the source gives them in different places. *1 amine or outer side, *2 acyl side, *3 side chain or, on linkers, in order; H or OH if unused. Where a SMILES comes first, the peptide text is derived from it. Bridges are numbered along the chain shown (N, C = ends). [ ]: non-standard residue; d: D form. The star is where a group is joined. Phe(3,5-F2) = N[C@@H](Cc1cc(F)cc(F)c1)C(=O)O; NHPh(4-CF3) = FC(F)(F)c1ccc(N*)cc1; Heptenoyl(2E) = CCCC/C=C/C(=O)*; aThr = C[C@H](O)[C@H](N)C(=O)O; Pip = O=C(O)[C@@H]1CCCCN1; CO = O=C([*:1])[*:2]

Assays:
Sa-ClpP [1] = molecular target: T1, Sa-ClpP (Staphylococcus aureus, UniProt Q2G036); test: ClpP activation, EnzCheck Protease Assay with Bodipy-FL casein (second described method); assay type: biochemical, S. aureus
T1 construct: made in house; host or cells: E. coli BL21 (DE3)
T1 sequence (Q2G036 whole entry): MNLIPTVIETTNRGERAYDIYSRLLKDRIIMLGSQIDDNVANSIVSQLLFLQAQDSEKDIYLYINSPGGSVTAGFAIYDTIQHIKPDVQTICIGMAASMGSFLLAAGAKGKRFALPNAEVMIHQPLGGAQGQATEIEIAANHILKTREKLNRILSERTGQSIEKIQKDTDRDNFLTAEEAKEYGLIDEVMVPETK
Procedure, shortened: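 Sa-ClpP (2 μM in master mix) with Bodipy-FL casein (2 μM in master mix) in Tris-HCl pH 8.0, 0.01% Triton X-100, compounds in 2% DMSO, triplicate. Fluorescence (ex 485/em 520 nm) followed 30 min; degradation slopes normalized to ADEP4 and DMSO controls, EC50 and % activation by four-parameter fit.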

Sa-ClpP [2] = molecular target: T1, Sa-ClpP; test: ADEP displacement fluorescence polarization assay; assay type: binding, S. aureus
Procedure, shortened: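 Displacement of TAMRA-labelled ADEP 2591 probe (50 nM) from 1 μM Sa-ClpP, pre-equilibrated 1 h in Tris·HCl pH 8.0 with 2% DMSO, then 120 min at room temperature with compound, triplicate. Polarization (mP) read ex 530/em 579 nm, normalised to 20 μM ADEP 2378 and DMSO controls; four-parameter fit.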

S. pyogenes ATCC 700294 = test: Minimal inhibitory concentration, microbroth dilution; assay type: cell-based; conditions: Streptococcus pyogenes, ATCC700294, read-out: Minimal Inhibitory Concentration S. pyogenes ATCC 700294
Procedure, shortened: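 Twofold serial dilutions in broth per CLSI M7-A7 microbroth dilution, incubated aerobically overnight at 37° C. MIC read visually as lowest concentration preventing bacterial growth.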

B. subtilis ATCC 23857 = test: as above; assay type: cell-based; conditions: Bacillus subtilis, ATCC23857, read-out: Minimal Inhibitory Concentration B. subtilis ATCC 23857
Procedure, shortened: (§1)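 MICs were determined by CLSI broth microdilution, using two-fold compound dilutions from a final 200 μM and about 10^5 cfu/mL inoculum. Plates were incubated aerobically at 37 °C overnight. The MIC was read visually as the lowest concentration preventing growth.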

S. aureus ATCC 29213 = test: as above; assay type: cell-based; conditions: Staphylococcus aureus, ATCC29213, read-out: Minimal Inhibitory Concentration S. aureus ATCC 29213
Procedure, shortened: as §1

[3] = read-out: ClpP Activation EC50 (converted)
[4] = 1 μM Sa-ClpP, 50 nM FP probe ADEP 2591, read-out: ADEP Displacement IC50

Compound | EC50 (Sa-ClpP [1]; [3]) [µM] | IC50 (Sa-ClpP [2]; [4]) [µM] | MIC (S. pyogenes ATCC 700294) [µM] | MIC (B. subtilis ATCC 23857) [µM] | MIC (S. aureus ATCC 29213) [µM] | EC50 (Sa-ClpP [1]) [µM] | IC50 (Sa-ClpP [2]) [µM]
CCCC/C=C/C(=O)N[C@@H](Cc1cc(F)cc(F)c1)C(=O)N[C@@H]1C(=O)N2CCC[C@H]2C(=O)N2CCCC[C@H]2C(=O)N[C@@H](C)C(=O)N2CCC[C@H]2C(=O)O[C@H]1C [ADEP 2719, reference compound] ({Heptenoyl(2E)}-[Phe(3,5-F2)][aThr]P[Pip]AP; ester 2-C) | 0.38 ± 0.01 | 6.2 ± 0.3 | – | – | – | – | –
C[C@@H]1C[C@H]2C(=O)OC[C@H](NC(=O)[C@H](Cc3ccccc3)NC(=O)Nc3ccc(Cl)cc3)C(=O)N3CCC[C@H]3C(=O)N3CCCC[C@H]3C(=O)N[C@@H](C)C(=O)N2C1 [Compound 3, (S)-2-(3-(4-Chlorophenyl)Ureido)-N-((2R,6S,8aS,14aS,20S,23aS)-2,6-Dimethyl-5,8,14,19,23-Pentaoxooctadecahydro-1H,5H,14H,19H-Pyrido[2,1-I]Dipyrrolo[2,1-C:2′,1′-L][1]Oxa[4,7,10,13]Tetraazacyclohexadecin-20-Yl)-3-Phenylpropanamide] | 1.5 | 9.25 ± 0.5 | 0.39 (≈ 0.304 µg/mL) | 0.78 (≈ 0.607 µg/mL) | 1.56 (≈ 1.21 µg/mL) | – | –
C[C@@H]1C[C@H]2C(=O)OC[C@H](NC(=O)[C@H](Cc3ccccc3)NC(=O)Nc3ccc(N(C)C)cc3)C(=O)N3CCC[C@H]3C(=O)N3CCCC[C@H]3C(=O)N[C@@H](C)C(=O)N2C1 [Compound 5, (S)—N-((2R,6S,8aS,14aS,20S,23aS)-2,6-Dimethyl-5,8,14,19,23-Pentaoxooctadecahydro-1H,5H,14H,19H-Pyrido[2,1-1]Dipyrrolo[2,1-C:2′,1′-L][1]Oxa[4,7,10,13]Tetraazacyclohexadecin-20-Yl)-2-(3-(4-(Dimethylamino)Phenyl)Ureido)-3-Phenylpropanamide] | 1.5 | 28 ± 2.3 | 0.78 (≈ 0.614 µg/mL) | 0.78 (≈ 0.614 µg/mL) | 6.25 (≈ 4.92 µg/mL) | – | –
COc1ccc(NC(=O)N[C@@H](Cc2ccccc2)C(=O)N[C@H]2COC(=O)[C@@H]3C[C@@H](C)CN3C(=O)[C@H](C)NC(=O)[C@@H]3CCCCN3C(=O)[C@@H]3CCCN3C2=O)cc1 [Compound 6, (S)—N-((2R,6S,8aS,14aS,20S,23aS)-2,6-Dimethyl-5,8,14,19,23-Pentaoxooctadecahydro-1H,5H,14H,19H-Pyrido[2,1-1]Dipyrrolo[2,1-C:2′,1′-L][1]Oxa[4,7,10,13]Tetraazacyclohexadecin-20-Yl)-2-(3-(4-Methoxyphenyl)Ureido)-3-Phenylpropanamide] | 0.8 | 27.7 ± 1.5 | 0.39 (≈ 0.302 µg/mL) | 1.56 (≈ 1.21 µg/mL) | 3.13 (≈ 2.42 µg/mL) | – | –
C[C@@H]1C[C@H]2C(=O)OC[C@H](NC(=O)[C@H](Cc3ccccc3)NC(=O)Nc3ccccc3Cl)C(=O)N3CCC[C@H]3C(=O)N3CCCC[C@H]3C(=O)N[C@@H](C)C(=O)N2C1 [Compound 7, (S)-2-(3-(2-Chlorophenyl)Ureido)-N-((2R,6S,8aS,14aS,20S,23aS)-2,6-Dimethyl-5,8,14,19,23-Pentaoxooctadecahydro-1H,5H,14H,19H-Pyrido[2,1-I]Dipyrrolo[2,1-C:2′,1′-L][1]Oxa[4,7,10,13]Tetraazacyclohexadecin-20-Yl)-3-Phenylpropanamide] | 1.6 | 130 ± 11.3 | 3.13 (≈ 2.44 µg/mL) | 6.25 (≈ 4.86 µg/mL) | 12.5 (≈ 9.73 µg/mL) | – | –
C[C@@H]1C[C@H]2C(=O)OC[C@H](NC(=O)[C@H](Cc3ccccc3)NC(=O)Nc3cccc(Cl)c3)C(=O)N3CCC[C@H]3C(=O)N3CCCC[C@H]3C(=O)N[C@@H](C)C(=O)N2C1 [Compound 9, (S)-2-(3-(3-Chlorophenyl)Ureido)-N-((2R,6S,8aS,14aS,20S,23aS)-2,6-Dimethyl-5,8,14,19,23-Pentaoxooctadecahydro-1H,5H,14H,19H-Pyrido[2,1-I]Dipyrrolo[2,1-C:2′,1′-L][1]Oxa[4,7,10,13]Tetraazacyclohexadecin-20-Yl)-3-Phenylpropanamide] | 1.1 | 25.4 ± 2.2 | 1.56 (≈ 1.21 µg/mL) | 1.56 (≈ 1.21 µg/mL) | 3.13 (≈ 2.44 µg/mL) | – | –
C[C@@H]1C[C@H]2C(=O)OC[C@H](NC(=O)[C@H](Cc3ccccc3)NC(=O)Nc3ccc4c(c3)CCN4C)C(=O)N3CCC[C@H]3C(=O)N3CCCC[C@H]3C(=O)N[C@@H](C)C(=O)N2C1 [Compound 11, (S)—N-((2R,6S,8aS,14aS,20S,23aS)-2,6-Dimethyl-5,8,14,19,23-Pentaoxooctadecahydro-1H,5H,14H,19H-Pyrido[2,1-I]Dipyrrolo[2,1-C:2′,1′-L][1]Oxa[4,7,10,13]Tetraazacyclohexadecin-20-Yl)-2-(3-(1-Methylindolin-5-Yl)Ureido)-3-Phenylpropanamide] | 1.1 | 4.45 ± 0.3 | 0.6 (≈ 0.479 µg/mL) | 1.25 (≈ 0.999 µg/mL) | 2.5 (≈ 2 µg/mL) | – | –
Cc1ccc(NC(=O)N[C@@H](Cc2cc(F)cc(F)c2)C(=O)N[C@@H]2C(=O)N3CCC[C@H]3C(=O)N3CCCC[C@H]3C(=O)N[C@@H](C)C(=O)N3CCC[C@H]3C(=O)O[C@H]2C)cc1 [Compound 15, (S)-3-(3,5-Difluorophenyl)-N-((6S,8aS,14aS,20S,21 S,23aS)-6,21-Dimethyl-5,8,14,19,23-Pentaoxooctadecahydro-1H,5H,14H,19H-Pyrido[2,1-I]Dipyrrolo[2,1-C:2′,1′-L][1]Oxa[4,7,10,13]Tetraazacyclohexadecin-20-Yl)-2-(3-(P-Tolyl)Ureido)Propanamide] | 0.7 | 8.4 ± 0.2 | 0.6 (≈ 0.476 µg/mL) | < 0.1 | 0.6 (≈ 0.476 µg/mL) | – | –
C[C@@H]1NC(=O)[C@@H]2CCCCN2C(=O)[C@@H]2CCCN2C(=O)[C@@H](NC(=O)[C@H](Cc2cc(F)cc(F)c2)NC(=O)Nc2ccc(C(F)(F)F)cc2)[C@H](C)OC(=O)[C@@H]2CCCN2C1=O [Compound 16, (S)-3-(3,5-Difluorophenyl)-N-((6S,8aS,14aS,20S,21 S,23aS)-6,21-Dimethyl-5,8,14,19,23-Pentaoxooctadecahydro-1H,5H,14H,19H-Pyrido[2,1-I]Dipyrrolo[2,1-C:2′,1′-L][1]Oxa[4,7,10,13]Tetraazacyclohexadecin-20-Yl)-2-(3-(4-(Trifluoromethyl)Phenyl)Ureido)Propanamide] ({NHPh(4-CF3)-CO}-[Phe(3,5-F2)][aThr]P[Pip]AP; ester 2-C) | 0.55 | 8.3 ± 0.6 | 1.5 (≈ 1.27 µg/mL) | 0.4 (≈ 0.339 µg/mL) | 0.4 (≈ 0.339 µg/mL) | – | –
C[C@@H]1NC(=O)[C@@H]2CCCCN2C(=O)[C@@H]2CCCN2C(=O)[C@@H](NC(=O)[C@H](Cc2cc(F)cc(F)c2)NC(=O)Nc2ccc3c(c2)OCO3)[C@H](C)OC(=O)[C@@H]2CCCN2C1=O [Compound 17, (S)-2-(3-(Benzo[D][1,3]Dioxol-5-Yl)Ureido)-3-(3,5-Difluorophenyl)-N-((6S,8aS,14aS,20S,21 S,23aS)-6,21-Dimethyl-5,8,14,19,23-Pentaoxooctadecahydro-1H,5H,14H,19H-Pyrido[2,1-I]Dipyrrolo[2,1-C:2′,1′-L][1]Oxa[4,7,10,13]Tetraazacyclohexadecin-20-Yl)Propanamide] | – | – | – | – | – | 0.72 | 7.2 ± 0.4
Cc1ccc(NC(=O)N[C@@H](Cc2cc(F)cc(F)c2)C(=O)N[C@@H]2C(=O)N3CCC[C@H]3C(=O)N3CCCC[C@H]3C(=O)N[C@@H](C)C(=O)N3C[C@@H](C)C[C@H]3C(=O)O[C@H]2C)cc1 [Compound 18, (S)-3-(3,5-Difluorophenyl)-2-(3-(P-Tolyl)Ureido)-N-((2R,6S,8aS,14aS,20S,21S,23aS)-2,6,21-Trimethyl-5,8,14,19,23-Pentaoxooctadecahydro-1H,5H,14H,19H-Pyrido[2,1-I]Dipyrrolo[2,1-C:2′,1′-L][1]Oxa[4,7,10,13]Tetraazacyclohexadecin-20-Yl)Propanamide] | 0.32 | 5.6 ± 0.3 | < 0.1 | < 0.1 | 0.1 (≈ 0.0808 µg/mL) | – | –
C[C@H]1C[C@H]2C(=O)O[C@@H](C)[C@H](NC(=O)[C@H](Cc3cc(F)cc(F)c3)NC(=O)Nc3ccc4c(c3)OCO4)C(=O)N3CCC[C@H]3C(=O)N3CCCC[C@H]3C(=O)N[C@@H](C)C(=O)N2C1 [Compound 20, (S)-2-(3-(Benzo[D][1,3]Dioxol-5-Yl)Ureido)-3-(3,5-Difluorophenyl)-N-((2R,6S,8aS,14aS,20S,21 S,23aS)-2,6,21-Trimethyl-5,8,14,19,23-Pentaoxooctadecahydro-1H,5H,14H,19H-Pyrido[2,1-I]Dipyrrolo[2,1-C:2′,1′-L][1]Oxa[4,7,10,13]Tetraazacyclohexadecin-20-Yl)Propanamide] | – | – | – | – | – | 0.36 | 6 ± 0.3
